Laboratory results: PubChem BioAssay (NCI)
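The concentration for 50% growth inhibition is given as GI50. TGI is the concentration that stops growth completely.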

Assays:
Assay in all cases: inhibition of tumour cell growth, NCI panel, 384-well format
[1] = test system: MDA-MB-468 breast
[2] = test system: HCT-15 colon
[3] = test system: COLO 205 colon
[4] = test system: UACC-257 melanoma
[5] = test system: SK-MEL-2 melanoma
[6] = test system: OVCAR-4 ovarian
[7] = test system: U251 glioblastoma
[8] = test system: HL-60(TB) leukemia
[9] = test system: T-47D breast
[10] = test system: SNB-75 CNS
[11] = test system: 786-0 renal
[12] = test system: UACC-62 melanoma
[13] = test system: HOP-92 NSCLC
[14] = test system: MDA-MB-435 melanoma
[15] = test system: TK-10 renal
[16] = test system: SK-MEL-5 melanoma
[17] = test system: UO-31 renal
[18] = test system: NCI-H322M lung
[19] = test system: MOLT-4 leukemia
[20] = test system: BT-549 breast
[21] = test system: EKVX NSCLC
[22] = test system: MALME-3M melanoma
[23] = test system: MCF7 breast
[24] = test system: OVCAR-3 ovarian
[25] = test system: HS 578T breast
[26] = test system: NCI/ADR-RES ovarian
[27] = test system: HOP-62 NSCLC
[28] = test system: RXF 393 renal
[29] = test system: K-562 leukemia
[30] = test system: SR leukemia
[31] = test system: M14 melanoma
[32] = test system: NCI-H522 lung
[33] = test system: ACHN renal
[34] = test system: MDA-MB-231 breast
[35] = test system: CAKI-1 renal
[36] = test system: SF-539 CNS
[37] = test system: SK-OV-3 ovarian
[38] = test system: HT29 colon
[39] = test system: SN12C renal
[40] = test system: SF-268 CNS
[41] = test system: LOX IMVI melanoma
[42] = test system: PC-3 prostate
[43] = test system: HCT-116 colon
[44] = test system: DU-145 prostate
[45] = test system: A498 renal
[46] = test system: NCI-H226 lung
[47] = test system: SK-MEL-28 melanoma

Work on Cc1cc([N+](=O)[O-])c(NS(=O)(=O)c2cccc(C(=O)O)c2)cc1-c1cccnc1 yielded a GI50 [1] of over 100 µM, a TGI [1] of over 100 µM and a GI50 [2] of over 100 µM. The TGI [2] was over 100 µM, the GI50 [3] was over 100 µM and the TGI [3] was over 100 µM. For the same compound, the GI50 [4] was over 100 µM, the TGI [4] was over 100 µM and the GI50 [5] was over 100 µM. The TGI [5] was over 100 µM, the GI50 [6] was over 100 µM and the TGI [6] was over 100 µM. It also gave a GI50 [7] of over 100 µM, a TGI [7] of over 100 µM and a GI50 [8] of over 100 µM. It also gave a TGI [8] of over 100 µM, a GI50 [9] of over 100 µM and a TGI [9] of over 100 µM. The GI50 [10] was over 100 µM, the TGI [10] was over 100 µM and the GI50 [11] was over 100 µM. It also gave a TGI [11] of over 100 µM, a GI50 [12] of over 100 µM and a TGI [12] of over 100 µM. The GI50 [13] was over 100 µM, the TGI [13] was over 100 µM and the GI50 [14] was over 100 µM. For the same compound, the TGI [14] was over 100 µM, the GI50 [15] was over 100 µM and the TGI [15] was over 100 µM. It also gave a GI50 [16] of over 100 µM, a TGI [16] of over 100 µM and a GI50 [17] of over 100 µM. The TGI [17] was over 100 µM, the GI50 [18] was over 100 µM and the TGI [18] was over 100 µM. For the same compound, the GI50 [19] was over 100 µM, the TGI [19] was over 100 µM and the GI50 [20] was over 100 µM. The TGI [20] was over 100 µM, the GI50 [21] was over 100 µM and the TGI [21] was over 100 µM. It also gave a GI50 [22] of over 100 µM, a TGI [22] of over 100 µM and a GI50 [23] of over 100 µM. It also gave a TGI [23] of over 100 µM, a GI50 [24] of over 100 µM and a TGI [24] of over 100 µM. It also gave a GI50 [25] of over 100 µM, a TGI [25] of over 100 µM and a GI50 [26] of over 100 µM. For the same compound, the TGI [26] was over 100 µM, the GI50 [27] was over 100 µM and the TGI [27] was over 100 µM. The GI50 [28] was over 100 µM, the TGI [28] was over 100 µM and the GI50 [29] was over 100 µM. For the same compound, the TGI [29] was over 100 µM, the GI50 [30] was over 61.5 µM and the TGI [30] was over 100 µM. The GI50 [31] was over 100 µM, the TGI [31] was over 100 µM and the GI50 [32] was over 100 µM. The TGI [32] was over 100 µM, the GI50 [33] was over 100 µM and the TGI [33] was over 100 µM. For the same compound, the GI50 [34] was over 100 µM, the TGI [34] was over 100 µM and the GI50 [35] was over 100 µM. For the same compound, the TGI [35] was over 100 µM, the GI50 [36] was over 100 µM and the TGI [36] was over 100 µM. It also gave a GI50 [37] of over 100 µM, a TGI [37] of over 100 µM and a GI50 [38] of over 100 µM. It also gave a TGI [38] of over 100 µM, a GI50 [39] of over 100 µM and a TGI [39] of over 100 µM. For the same compound, the GI50 [40] was over 100 µM, the TGI [40] was over 100 µM and the GI50 [41] was over 100 µM. The TGI [41] was over 100 µM, the GI50 [42] was over 100 µM and the TGI [42] was over 100 µM. The GI50 [43] was over 100 µM, the TGI [43] was over 100 µM and the GI50 [44] was over 100 µM. For the same compound, the TGI [44] was over 100 µM, the GI50 [45] was over 100 µM and the TGI [45] was over 100 µM. For the same compound, the GI50 [46] was over 100 µM, the TGI [46] was over 100 µM and the GI50 [47] was over 100 µM. For the same compound, the TGI [47] was over 100 µM.
Work on CC1=C(c2cccc(O)c2)[C@H](c2ccc(OCCN3CC(CF)C3)cc2)Oc2ccc(O)cc21 yielded a GI50 [1] of 1.94 µM, a TGI [1] of 4.35 µM and a GI50 [2] of 3.57 µM. For the same compound, the TGI [2] was 13.2 µM, the GI50 [3] was 3.09 µM and the TGI [3] was 8.69 µM. The GI50 [4] was 1.64 µM, the TGI [4] was 3.01 µM and the GI50 [5] was 1.96 µM. The TGI [5] was 3.78 µM, the GI50 [6] was 5.79 µM and the TGI [6] was 17.8 µM. The GI50 [7] was 5.35 µM, the TGI [7] was 17.1 µM and the GI50 [8] was 1.86 µM. It also gave a TGI [8] of 3.29 µM, a GI50 [9] of 1.11 µM and a TGI [9] of 12.4 µM. It also gave a GI50 [10] of 2.36 µM, a TGI [10] of 7.79 µM and a GI50 [11] of 2.65 µM. For the same compound, the TGI [11] was 7.32 µM, the GI50 [12] was 4.7 µM and the TGI [12] was 16.4 µM. It also gave a GI50 [13] of 3.83 µM, a TGI [13] of 13.1 µM and a GI50 [14] of 10.7 µM. The TGI [14] was 22.6 µM, the GI50 [15] was 5.15 µM and the TGI [15] was 17.6 µM. The GI50 [16] was 1.68 µM, the TGI [16] was 3.07 µM and the GI50 [17] was 9.8 µM. The TGI [17] was 21.5 µM, the GI50 [18] was 6.69 µM and the TGI [18] was 19.6 µM. It also gave a GI50 [19] of 1.58 µM, a TGI [19] of 2.97 µM and a GI50 [20] of 3.24 µM. It also gave a TGI [20] of 12.6 µM, a GI50 [21] of 5.1 µM and a TGI [21] of 17.5 µM. The GI50 [22] was 1.64 µM, the TGI [22] was 3.05 µM and the TGI [23] was 1.97 µM. For the same compound, the GI50 [24] was 4.05 µM, the TGI [24] was 15.4 µM and the GI50 [25] was 2.48 µM. The TGI [25] was 12 µM, the GI50 [26] was 16.2 µM and the TGI [26] was 29.8 µM. For the same compound, the GI50 [27] was 4.55 µM, the TGI [27] was 15 µM and the GI50 [28] was 1.87 µM. It also gave a TGI [28] of 5.29 µM, a GI50 [29] of 1.73 µM and a TGI [29] of 3.29 µM. It also gave a GI50 [30] of 1.79 µM, a TGI [30] of 3.23 µM and a GI50 [31] of 1.89 µM. It also gave a TGI [31] of 3.88 µM, a GI50 [32] of 11.1 µM and a TGI [32] of 23.1 µM. It also gave a GI50 [33] of 11.1 µM, a TGI [33] of 23.2 µM and a GI50 [34] of 6.48 µM. For the same compound, the TGI [34] was 19.2 µM, the GI50 [35] was 3.42 µM and the TGI [35] was 13.5 µM. It also gave a GI50 [36] of 2.03 µM, a TGI [36] of 4.26 µM and a GI50 [37] of 5.77 µM. The TGI [37] was 18.3 µM, the GI50 [38] was 1.94 µM and the TGI [38] was 3.58 µM. It also gave a GI50 [39] of 7.94 µM, a TGI [39] of 20.6 µM and a GI50 [40] of 4.24 µM. For the same compound, the TGI [40] was 15.6 µM, the GI50 [41] was 1.77 µM and the TGI [41] was 3.34 µM. For the same compound, the GI50 [42] was 4.5 µM, the TGI [42] was 16.9 µM and the GI50 [43] was 3.62 µM. For the same compound, the TGI [43] was 13.8 µM, the GI50 [44] was 10.8 µM and the TGI [44] was 22.7 µM. The GI50 [45] was 2.28 µM, the TGI [45] was 6.48 µM and the GI50 [46] was 6.19 µM. For the same compound, the TGI [46] was 19.4 µM, the GI50 [47] was 3.05 µM and the TGI [47] was 11.6 µM.
